From ChEMBL document CHEMBL4431301, “The Medicinal Chemistry of Dengue Virus” (J Med Chem, 2016)

Key:
dengue virus type 2 [1] = test: Antiviral activity against Dengue virus 2 NGC infected in african green monkey Vero cells assessed as inhibition of viral yield after 48 hrs; type: functional, organism-based
Junin virus = test: Antiviral activity against Junin virus IV4454 infected in african green monkey Vero cells assessed as inhibition of viral yield after 48 hrs; type: functional, organism-based; details: Mammarenavirus juninense
dengue virus type 1 [2] = test: Antiviral activity against Dengue virus 1 Hawaii infected in african green monkey Vero cells assessed as inhibition of viral yield after 48 hrs; type: functional, organism-based
dengue virus type 3 [3] = test: Antiviral activity against Dengue virus 3 H87 infected in african green monkey Vero cells assessed as inhibition of viral yield after 48 hrs; type: functional, organism-based
dengue virus type 4 [4] = test: Antiviral activity against Dengue virus 4 8124 infected in african green monkey Vero cells assessed as inhibition of viral yield after 48 hrs; type: functional, organism-based; details: Dengue virus, 8124, Vero
dengue virus type 3 [5] = test: Potency index, ratio of S-adenosyl-L-methionine Kd to sinefungin Kd for His-tagged Dengue virus 3 methyltransferase expressed in Escherichia coli Rosetta 2(DE3)
[6] = Inhibition of Dengue virus guanine N-7 methyltransferase using RNA substrate after 20 mins in presence of [methyl-3H]-AdoMet by microbeta counting analysis
[7] = Binding affinity to His-tagged Dengue virus 3 methyltransferase expressed in Escherichia coli Rosetta 2(DE3) by VP-ITC isothermal titration calorimetry; design: species or system dengue virus type 3
Nonstructural protein 5 = Nonstructural protein 5 (Dengue virus, UniProt V5TFZ2); test: Inhibition of Dengue virus ribose 2'-O methyltransferase using RNA substrate after 20 mins in presence of [methyl-3H]-AdoMet by microbeta counting analysis
Nonstructural protein 5, sequence (V5TFZ2 whole entry): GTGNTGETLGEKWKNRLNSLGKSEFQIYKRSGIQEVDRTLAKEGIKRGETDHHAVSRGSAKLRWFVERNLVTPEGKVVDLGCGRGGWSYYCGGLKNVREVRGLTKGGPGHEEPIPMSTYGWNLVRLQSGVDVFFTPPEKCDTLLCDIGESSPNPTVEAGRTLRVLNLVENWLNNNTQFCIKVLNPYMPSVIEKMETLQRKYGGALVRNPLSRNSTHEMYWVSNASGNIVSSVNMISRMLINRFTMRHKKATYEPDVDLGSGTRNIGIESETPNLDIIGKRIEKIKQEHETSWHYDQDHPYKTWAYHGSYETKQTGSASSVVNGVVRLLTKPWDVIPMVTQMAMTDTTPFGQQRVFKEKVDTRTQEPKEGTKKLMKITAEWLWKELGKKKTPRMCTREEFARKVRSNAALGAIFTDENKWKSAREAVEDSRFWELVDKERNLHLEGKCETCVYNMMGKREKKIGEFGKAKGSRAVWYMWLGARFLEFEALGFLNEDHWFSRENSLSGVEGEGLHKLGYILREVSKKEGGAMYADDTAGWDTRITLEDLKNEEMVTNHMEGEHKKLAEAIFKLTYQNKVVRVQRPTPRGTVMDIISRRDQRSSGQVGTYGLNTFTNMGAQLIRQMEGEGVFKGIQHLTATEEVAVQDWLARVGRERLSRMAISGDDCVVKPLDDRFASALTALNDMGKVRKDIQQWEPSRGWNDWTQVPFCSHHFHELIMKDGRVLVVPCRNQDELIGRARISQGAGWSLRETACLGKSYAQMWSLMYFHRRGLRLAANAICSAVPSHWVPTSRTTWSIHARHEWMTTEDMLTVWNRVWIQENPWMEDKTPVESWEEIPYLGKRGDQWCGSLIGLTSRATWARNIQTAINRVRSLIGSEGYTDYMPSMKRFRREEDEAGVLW

dengue virus type 2 [8] = test: Antiviral activity against Dengue virus 2 NGC infected in human K562 cells assessed as inhibition in live viral replication after 48 hrs by plaque assay; type: functional, organism-based; details: K562, 48 h
dengue virus type 2 [9] = test: Antiviral activity against Dengue virus 2 3295 infected in BHK21 cells after 48 hrs by CFI assay; type: functional, organism-based; details: Dengue virus, 3295, BHK-21, 48 h
[10] = Selectivity index, ratio of CC50 for BHK21 cells to EC50 for Dengue virus 2 infected in BHK21 cells; type: toxicity, cell-based; details: hamster, read-out: Ratio CC50/EC50
dengue virus type 2 [11] = test: Antiviral activity against Dengue virus 2 infected in BHK21 cells assessed as reduction in virus replication after 72 hrs by renilla luciferase reporter gene assay; type: functional, organism-based; details: BHK-21, 72 h
dengue virus type 2 [12] = test: Antiviral activity against Dengue virus 2 NGC infected in human HuH7 cells assessed as reduction in viral titer after 24 hrs; type: functional; details: Huh-7, 24 h
dengue virus type 2 [13] = test: Antiviral activity against Dengue virus 2 NGC infected in human A549 cells assessed as reduction in virus replication after 48 hrs by renilla luciferase reporter gene assay; type: functional, organism-based; details: A549, 48 h
dengue virus type 3 [14] = test: Antiviral activity against Dengue virus 3 H87 VR-1256 infected in african green monkey Vero cells assessed as reduction in viral titer after 48 hrs by plaque assay; type: functional, organism-based; details: H87 VR-1256, Vero
dengue virus type 4 [15] = test: Antiviral activity against Dengue virus 4 H241 VR-1257 infected in african green monkey Vero cells assessed as reduction in viral titer after 48 hrs by plaque assay; type: functional, organism-based; details: H241 VR-1257, Vero
dengue virus type 1 [16] = test: Antiviral activity against Dengue virus 1 TH-Sman VR-344 infected in african green monkey Vero cells assessed as reduction in viral titer after 48 hrs by plaque assay; type: functional, organism-based; details: TH-Sman VR-344, Vero
dengue virus type 2 [17] = test: Antiviral activity against Dengue virus 2 NGC VR-1255 infected in african green monkey Vero cells assessed as reduction in viral titer after 48 hrs by plaque assay; type: functional, organism-based; details: NGC VR-1255, Vero
dengue virus type 2 [18] = test: Antiviral activity against Dengue virus 2 NGC infected through intraperitoneal route in AG129 mouse assessed as reduction of viral load in spleen at 50 mg/kg, ip bid measured on day 3 by plaque assay relative to vehicle-treated control; type: functional
dengue virus type 2 [19] = test: Antiviral activity against Dengue virus 2 NGC infected through intraperitoneal route in AG129 mouse assessed as reduction in peak plasma viremia at 50 mg/kg, ip bid measured on day 3 by plaque assay relative to vehicle-treated control; type: functional
[20] = Oral bioavailability in AG129 mouse plasma at 50 mg/kg/day after 1 to 24 hrs by LC-MS/MS; type: ADME, organism-based
dengue virus type 2 [21] = test: Antiviral activity against Dengue virus 2 NGC infected in african green monkey Vero cells assessed as reduction in viral titer after 48 hrs by plaque assay; type: functional, organism-based
dengue virus type 2 [22] = test: Antiviral activity against Dengue virus 2 NGC infected through intraperitoneal route in AG129 mouse assessed as reduction of viral load in liver at 50 mg/kg, ip bid measured on day 3 by plaque assay relative to vehicle-treated control; type: functional
dengue virus type 2 [23] = test: Antiviral activity against Dengue virus 2 16681 infected in human HuH7 cells after 72 hrs by indirect immunofluorescent flow cytometry; type: functional, organism-based; details: Dengue virus, 16681, Huh-7, 72 h
Genome polyprotein [24] = biological target: T1, Genome polyprotein (dengue virus type 2, UniProt P29990); test: Inhibition of RNA unwinding activity of thioredoxin/His6 tagged Dengue virus 2 TSV01 NS3 helicase (171 to 618 residues) expressed in Escherichia coli Rosetta (DE3) using Cy5-MBHA as substrate by fluorescence assay
T1 sequence (P29990 1476-2093 limits assumed): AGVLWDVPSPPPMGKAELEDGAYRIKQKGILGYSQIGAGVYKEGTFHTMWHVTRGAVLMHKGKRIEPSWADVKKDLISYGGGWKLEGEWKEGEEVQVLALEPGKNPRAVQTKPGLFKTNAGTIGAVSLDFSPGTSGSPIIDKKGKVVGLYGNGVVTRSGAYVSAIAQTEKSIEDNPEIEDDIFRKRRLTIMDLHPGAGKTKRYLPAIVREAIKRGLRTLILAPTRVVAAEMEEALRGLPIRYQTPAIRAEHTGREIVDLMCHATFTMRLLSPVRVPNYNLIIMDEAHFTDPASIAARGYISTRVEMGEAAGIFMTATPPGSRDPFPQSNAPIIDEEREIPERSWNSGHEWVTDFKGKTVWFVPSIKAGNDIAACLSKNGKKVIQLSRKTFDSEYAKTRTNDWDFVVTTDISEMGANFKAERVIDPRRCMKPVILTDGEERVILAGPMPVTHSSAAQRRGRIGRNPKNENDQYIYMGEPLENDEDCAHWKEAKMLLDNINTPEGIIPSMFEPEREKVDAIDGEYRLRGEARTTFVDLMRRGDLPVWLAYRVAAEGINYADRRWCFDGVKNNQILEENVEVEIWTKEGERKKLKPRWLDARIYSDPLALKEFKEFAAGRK

Genome polyprotein [25] = biological target: T1, Genome polyprotein; test: Inhibition of Dengue virus 2 NS3 helicase incubated for 2 mins followed by ATP addition
dengue virus type 2 [26] = test: Antiviral activity against Dengue virus 2 NGC infected in BHK21 cells after 24 hrs by plaque reduction assay; type: functional; details: BHK-21, 24 h
[27] = Cytotoxicity against BHK21 cells after 1 hr by alamar blue assay; type: cell-based, Mesocricetus auratus, BHK-21; details: hamster

Compound: CO[C@@H]1[C@H]2OC(C)(C)O[C@H]2O[C@@H]1C(=O)c1cnc2sc(C(=O)c3ccc(Br)cc3)cn12
- EC50 (dengue virus type 2 [1]): 29900 nM
- EC50 (Junin virus): 12000 nM

Compound: C=CCn1c2ccc(Cl)cc2c(=O)c2cccc(OC)c21
- EC50 (dengue virus type 1 [2]): 13500 to 27100 nM
- EC50 (dengue virus type 3 [3]): 13500 to 27100 nM
- EC50 (dengue virus type 2 [1]): 13500 to 27100 nM
- EC50 (dengue virus type 4 [4]): 13500 to 27100 nM

Compound: Nc1ncnc2c1ncn2[C@@H]1O[C@H](C[C@@H](N)CC[C@H](N)C(=O)O)[C@@H](O)[C@H]1O [SINEFUNGIN]
- Ratio (dengue virus type 3 [5]): 6
- IC50 [6]: 30 nM
- Kd [7]: 136 nM
- IC50 (Nonstructural protein 5): 41 nM

Compound: C=C(CC[C@]12O[C@H](C(=O)O)[C@@](O)(C(=O)O)[C@](C(=O)O)(O1)[C@H](OC(=O)/C=C/[C@@H](C)C[C@@H](C)CC)[C@H]2O)[C@@H](OC(C)=O)[C@H](C)Cc1ccccc1 [ZARAGOZIC ACIDS A]
- EC50 (dengue virus type 2 [8]): 8300 nM

Compound: O[C@H]1[C@H](O)[C@@H](O)CN2CC[C@H](O)[C@H]12 [CASTANOSPERMINE]
- EC50 (dengue virus type 2 [9]): 28000 nM

Compound: Nc1ncnc2c1ncn2[C@@H]1O[C@H](CSCC[C@H](N)C(=O)O)[C@@H](O)[C@H]1O [S-ADENOSYLHOMOCYSTEINE]
- IC50 [6]: 1770 nM
- IC50 (Nonstructural protein 5): 490 nM

Compound: Cc1cc(N2C(=O)C(O)=C(C(=O)c3ccc(C)o3)C2c2cc(Cl)cc(Cl)c2)no1 (configuration not stated)
- selectivity ratio [10]: 4.5
- EC50 (dengue virus type 2 [11]): 36000 nM

Compound: CN1CCN(CCOc2cc(OC3CCOCC3)c3c(Nc4c(Cl)ccc5c4OCO5)ncnc3c2)CC1 [SARACATINIB]
- EC90 (dengue virus type 2 [12]): 12200 nM

Compound: CC[C@H](C)C(=O)O[C@H]1C[C@@H](C)C=C2C=C[C@H](C)[C@H](CC[C@@H]3C[C@@H](O)CC(=O)O3)[C@H]21 [LOVASTATIN]
- EC50 (dengue virus type 2 [13]): 1820 to 8750 nM

Compound: CC[C@H](C)C(=O)O[C@H]1CCC=C2C=C[C@H](C)[C@H](CC[C@@H]3C[C@@H](O)CC(=O)O3)[C@H]21 [MEVASTATIN]
- EC50 (dengue virus type 2 [13]): 1820 to 8750 nM

Compound: NC(=O)C1(N2CCCCC2)CCN(C(=O)CSc2nc3ccccc3o2)CC1
- EC50 (dengue virus type 3 [14]): 203 to 272 nM
- EC50 (dengue virus type 4 [15]): 203 to 272 nM
- EC50 (dengue virus type 1 [16]): 203 to 272 nM
- EC50 (dengue virus type 2 [17]): 203 to 272 nM

Compound: Nc1c(C(=O)Nc2nnc(-c3ccccc3)s2)sc2nc3c(cc12)CCCCC3
- fold change (FC) (dengue virus type 2 [18]): 3
- fold change (FC) (dengue virus type 2 [19]): 52
- bioavailability [20]: 9.1%
- EC50 (dengue virus type 2 [21]): 16 nM
- EC90 (dengue virus type 2 [21]): 125 nM
- fold change (FC) (dengue virus type 2 [22]): 20

Compound: CCC(C)(C)C(=O)O[C@H]1C[C@@H](C)C=C2C=C[C@H](C)[C@H](CC[C@@H]3C[C@@H](O)CC(=O)O3)[C@H]21 [SIMVASTATIN]
- EC50 (dengue virus type 2 [13]): 1820 to 8750 nM

Compound: NC(=O)c1ncn([C@@H]2O[C@H](CO)[C@@H](O)[C@H]2O)n1 [RIBAVIRIN]
- EC50 (dengue virus type 2 [23]): 40000 nM

Compound: Cc1ccc2nc(-c3ccc4nc(-c5ccc(NC(=O)c6ccc7nc(-c8ccc(N)cc8)sc7c6)cc5)sc4c3)sc2c1S(=O)(=O)O
- EC50 (dengue virus type 2 [11]): 7100 nM
- IC50 (Genome polyprotein [24]): 1500 nM
- IC50 (Genome polyprotein [25]): 500 nM

Compound: C[S+](CC[C@H](N)C(=O)[O-])C[C@H]1O[C@@H](n2cnc3c(N)ncnc32)[C@H](O)[C@@H]1O (some centres not stated) [ADEMETIONINE]
- Kd [7]: 826 nM

Compound: N#C/C(=N\Nc1cccc(Cl)c1)C(=O)c1ccco1
- IC90 (dengue virus type 2 [26]): 16900 nM
- CC50 at 1 h [27]: > 100000 nM
